Patent publication USRE49687E1, “Thienopyrimidine and thienopyridine compounds and methods of use thereof” (The Regents of The University of Michigan, priority 2014, dated 2023)
“And” between values parts separate entries of the source, which are not always exact repeats. Equal entries are not always repeated.

Molecular target: T1, menin-MLL interaction (Homo sapiens, UniProt O00255)
T1 sequence (O00255 1-610): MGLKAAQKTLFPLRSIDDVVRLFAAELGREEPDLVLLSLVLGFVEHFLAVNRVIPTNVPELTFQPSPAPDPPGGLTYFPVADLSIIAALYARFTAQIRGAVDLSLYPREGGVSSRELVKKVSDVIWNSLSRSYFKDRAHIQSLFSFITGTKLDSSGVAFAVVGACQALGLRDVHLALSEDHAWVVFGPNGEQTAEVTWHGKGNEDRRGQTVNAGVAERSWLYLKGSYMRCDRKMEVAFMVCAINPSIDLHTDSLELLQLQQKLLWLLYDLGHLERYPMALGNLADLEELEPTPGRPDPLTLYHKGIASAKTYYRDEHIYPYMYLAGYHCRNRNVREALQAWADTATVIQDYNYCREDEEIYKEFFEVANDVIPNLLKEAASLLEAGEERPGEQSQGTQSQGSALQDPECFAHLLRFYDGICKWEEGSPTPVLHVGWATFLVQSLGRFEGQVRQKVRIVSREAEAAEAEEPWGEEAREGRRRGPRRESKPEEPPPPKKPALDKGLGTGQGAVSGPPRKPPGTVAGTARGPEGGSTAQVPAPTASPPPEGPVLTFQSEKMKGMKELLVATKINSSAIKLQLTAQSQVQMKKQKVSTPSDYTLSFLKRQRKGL
Test: Fluorescence polarization (FP) competition assay of the menin-MLL interaction
Assay type: binding
Settings: inhibition of the menin-MLL interaction; read-out: IC50 values for Table 1 inhibitors of menin

SMILES	IC50
C=CC(=O)Nc1ccc([C@](C)(O)Cn2c(C#N)cc3c(C)c(CN4CCC(Nc5ncnc6sc(CC(F)(F)F)cc56)CC4)ccc32)cc1 [Compound 243]	30 to 100 nM
Cc1c(CN2CCC(Nc3ncnc4sc(CC(F)(F)F)cc34)CC2)ccc2c1cc(C#N)n2CCN1CCC2(CCNC2)CC1 [Compound 169]	30 to 100 nM
Cc1c(CN2CCC(Nc3ncnc4sc(CC(F)(F)F)cc34)CC2)ccc2c1cc(C#N)n2CCN1CCN(C(=O)/C=C/CN(C)C)CC1 [Compound 6]	< 30 nM
C=CC(=O)N1CCC(C(O)Cn2c(C#N)cc3c(C)c(CN4CCC(Nc5ncnc6sc(CC(F)(F)F)cc56)CC4)ccc32)CC1 (stereo not shown) [Compound 210]	100 to 1000 nM
C#CC(=O)N1CCN(CCn2c(C#N)cc3c(C)c(CN4CCC(Nc5ncnc6sc(CC(F)(F)F)cc56)CC4)ccc32)CC1 [Compound 5]	30 to 100 nM
Cc1c(CN2CCC(Nc3ncnc4sc(CC(F)(F)F)cc34)CC2)ccc2c1cc(C#N)n2CCc1cccc(N)c1 [Compound 189]	30 to 100 nM
C/C=C/C(=O)N1CCN(CCn2c(C#N)cc3c(C)c(CN4CCC(Nc5ncnc6sc(CC(F)(F)F)cc56)CC4)ccc32)CC1 [Compound 4]	< 30 nM
C=CS(=O)(=O)N1CC2CC1CN2CCn1c(C#N)cc2c(C)c(CN3CCC(Nc4ncnc5sc(CC(F)(F)F)cc45)CC3)ccc21 (stereo not shown) [Compound 17, 4-methyl-5-((4-((6-(2,2,2-trifluoroethyl)thieno[2,3-d]pyrimidin-4-yl)amino)piperidin-1-yl)methyl)-1-(2-(5-(vinylsulfonyl)-2,5-diazabicyclo[2.2.1]heptan-2-yl)ethyl)-1H-indole-2-carbonitrile]	100 to 1000 nM
C=CC(=O)Nc1ccc(C(C)(O)Cn2c(C#N)cc3c(C)c(CN4CCC(Nc5ncnc6sc(CC(F)(F)F)cc56)CC4)ccc32)cn1 (stereo not shown) [Compound 209]	30 to 100 nM
C=CC(=O)N1CC2CN(CCn3c(C#N)cc4c(C)c(CN5CCC(Nc6ncnc7sc(CC(F)(F)F)cc67)CC5)ccc43)CC2C1 (stereo not shown) [Compound 168]	30 to 100 nM
CP(C)(=O)c1cc2cc(CN3CCC(Nc4ncnc5sc(CC(F)(F)F)cc45)CC3)ccc2[nH]1 [Compound 205]	> 1000 nM
C=CC(=O)N1CC2(CN(CCn3c(C#N)cc4c(C)c(CN5CCC(Nc6ncnc7sc(CC(F)(F)F)cc67)CC5)ccc43)C2)C1 [Compound 174]	30 to 100 nM
CCC(=O)N1CCC(C(O)Cn2c(C#N)cc3c(C)c(CN4CCC(Nc5ncnc6sc(CC(F)(F)F)cc56)CC4)ccc32)CC1 (stereo not shown) [Compound 211]	100 to 1000 nM
Cc1c(CN2CCC(Nc3ncnc4sc(CC(F)(F)F)cc34)CC2)ccc2c1cc(C#N)n2CCN1CC2CNCC2C1 (stereo not shown) [Compound 167]	< 30 nM
C=CC(=O)N1CCC2(CCN(CCn3c(C#N)cc4c(C)c(CN5CCC(Nc6ncnc7sc(CC(F)(F)F)cc67)CC5)ccc43)C2)C1 (stereo not shown) [Compound 172]	30 to 100 nM
C=CC(=O)N1CC2CCC(C1)N2CCn1c(C#N)cc2c(C)c(CN3CCC(Nc4ncnc5sc(CC(F)(F)F)cc45)CC3)ccc21 [Compound 229]	< 30 nM
Cc1c(CN2CCC(Nc3ncnc4sc(CC(F)(F)F)cc34)CC2)ccc2c1cc(C#N)n2CCP(C)(C)=O [Compound 218]	100 to 1000 nM
C=CC(=O)N1CC2(CCN(CCn3c(C#N)cc4c(C)c(CN5CCC(Nc6ncnc7sc(CC(F)(F)F)cc67)CC5)ccc43)C2)C1 [Compound 182]	30 to 100 nM
C=CC(=O)Nc1ccc(CCn2c(C#N)cc3c(C)c(CN4CCC(Nc5ncnc6sc(CC(F)(F)F)cc56)CC4)ccc32)cc1C#N [Compound 194]	30 to 100 nM
C=CC(=O)NC1CCN(CCn2c(C#N)cc3cc(CN4CCC(Nc5ncnc6sc(CC(F)(F)F)cc56)CC4)c(O)cc32)CC1 [Compound 93]	< 30 nM
C=CC(=O)Nc1ccc(CCn2c(C#N)cc3c(C)c(CN4CCC(Nc5ncnc6sc(CC(F)(F)F)cc56)CC4)ccc32)cn1 [Compound 100, N-(5-(2-(2-cyano-4-methyl-5-((4-(6-(2,2,2-trifluoroethyl)thieno[2,3-d]pyrimidin-4-ylamino)piperidin-1-yl)methyl)-1H-indol-1-yl)ethyl)pyridin-2-yl)acrylamide]	< 30 nM
C=CC(=O)Nc1nc(CCn2c(C#N)cc3c(C)c(CN4CCC(Nc5ncnc6sc(CC(F)(F)F)cc56)CC4)ccc32)cs1 [Compound 34, N-(4-(2-(2-cyano-4-methyl-5-((4-((6-(2,2,2-trifluoroethyl)thieno[2,3-d]pyrimidin-4-yl)amino)piperidin-1-yl)methyl)-1H-indol-1-yl)ethyl)thiazol-2-yl)acrylamide]	30 to 100 nM
C[Si](C)(C)CCOCn1c(P(C)(C)=O)cc2cc(CN3CCC(Nc4ncnc5sc(CC(F)(F)F)cc45)CC3)ccc21 [Compound 207]	> 1000 nM
CCC(=O)N1CCCN(CCn2c(C#N)cc3c(C)c(CN4CCC(Nc5ncnc6sc(CC(F)(F)F)cc56)CC4)ccc32)CC1 [Compound 103]	30 to 100 nM
C=CC(=O)Nc1ccc(CCn2c(C#N)cc3c(C)c(CN4CCC(Nc5ncnc6sc(CC(F)(F)F)cc56)CC4)ccc32)cc1P(C)(C)=O [Compound 199]	< 30 nM

SMILES	IC50
CCC(=O)Nc1ccc(C(C)(O)Cn2c(C#N)cc3c(C)c(CN4CCC(Nc5ncnc6sc(CC(F)(F)F)cc56)CC4)ccc32)cn1 (stereo not shown) [Compound 212]	30 to 100 nM
C=CC(=O)NCc1cc(Cn2c(C#N)cc3c(C)c(CN4CCC(Nc5ncnc6sc(CC(F)(F)F)cc56)CC4)ccc32)n[nH]1 [Compound 10]	30 to 100 nM
C=CC(=O)NN1CCN(CCn2c(C#N)cc3c(C)c(CN4CCC(Nc5ncnc6sc(CC(F)(F)F)cc56)CC4)ccc32)CC1 [Compound 94]	30 to 100 nM
C/C=C/C(=O)Nc1ccc(CCn2c(C#N)cc3c(C)c(CN4CCC(Nc5ncnc6sc(CC(F)(F)F)cc56)CC4)ccc32)cn1 [Compound 106]	30 to 100 nM
Cc1c(CN2CCC(Nc3ncnc4sc(CC(F)(F)F)cc34)CC2)ccc2c1cc(C#N)n2CCN1CCC2(CCNC2)C1 (stereo not shown) [Compound 171]	30 to 100 nM
Cc1c(CN2CCC(Nc3ncnc4sc(CC(F)(F)F)cc34)CC2)ccc2c1cc(C#N)n2CC(O)c1cccc(S(C)(=O)=O)c1 (stereo not shown) [Compound 197]	30 to 100 nM
C=CC(=O)N1CC2(CCN(CCn3c(C#N)cc4c(C)c(CN5CCC(Nc6ncnc7sc(CC(F)(F)F)cc67)CC5)ccc43)CC2)C1 [Compound 184]	< 30 nM
C=CC(=O)NC1CCN(CCn2c(C#N)cc3c(C)c(CN4CCC(Nc5ncnc6sc(CC(F)(F)F)cc56)CC4)ccc32)C1 (stereo not shown) [Compound 29]	< 30 nM
C=CC(=O)N1C2CCC1CN(CCn1c(C#N)cc3c(C)c(CN4CCC(Nc5ncnc6sc(CC(F)(F)F)cc56)CC4)ccc31)C2 [Compound 24]	30 to 100 nM
Cc1c(CN2CCC(Nc3ncnc4sc(CC(F)(F)F)cc34)CC2)ccc2c1cc(C#N)n2CCc1ccc(N)c(C#N)c1 [Compound 193]	100 to 1000 nM
C=CC(=O)Nc1ccc([C@@](C)(O)Cn2c(C#N)cc3c(C)c(CN4CCC(Nc5ncnc6sc(CC(F)(F)F)cc56)CC4)ccc32)cc1 [Compound 244]	30 to 100 nM
C=CS(=O)(=O)N1CCC(CCn2c(C#N)cc3c(C)c(CN4CCC(Nc5ncnc6sc(CC(F)(F)F)cc56)CC4)ccc32)CC1 [Compound 8]	< 30 nM
C/C=C/S(=O)(=O)N1CCN(CCn2c(C#N)cc3c(C)c(CN4CCC(Nc5ncnc6sc(CC(F)(F)F)cc56)CC4)ccc32)CC1 [Compound 7]	< 30 nM
C=CC(=O)N1CCN(CCn2c(C#N)cc3cc(CN4CCC(Nc5ccnc6sc(CC(F)(F)F)cc56)CC4)ccc32)CC1 [Compound 1]	30 to 100 nM
C=CC(=O)NC1CCC(Cn2c(C#N)cc3c(C)c(CN4CCC(Nc5ncnc6sc(CC(F)(F)F)cc56)CC4)ccc32)C1 (stereo not shown) [Compound 219]	30 to 100 nM
[2H]C([2H])=C([2H])C(=O)Nc1ccc(C(O)Cn2c(C#N)cc3c(C)c(CN4CCC(Nc5ncnc6sc(CC(F)(F)F)cc56)CC4)ccc32)cn1 (stereo not shown) [Compound 242]	30 to 100 nM
C=CS(=O)(=O)N1CC2CCC(C1)N2CCn1c(C#N)cc2c(C)c(CN3CCC(Nc4ncnc5sc(CC(F)(F)F)cc45)CC3)ccc21 [Compound 18]	< 30 nM and 30 to 100 nM
C=CC(=O)N1CCC2(CCN(CCn3c(C#N)cc4c(C)c(CN5CCC(Nc6ncnc7sc(CC(F)(F)F)cc67)CC5)ccc43)CC2)C1 [Compound 170]	30 to 100 nM
C=CC(=O)N1CCN(CCCn2c(C#N)cc3cc(CN4CCC(Nc5ncnc6sc(CC(F)(F)F)cc56)CC4)ccc32)CC1 [Compound 2]	30 to 100 nM
C=CC(=O)Nc1ccc(C2(Cn3c(C#N)cc4c(C)c(CN5CCC(Nc6ncnc7sc(CC(F)(F)F)cc67)CC5)ccc43)CC2)cn1 [Compound 216]	100 to 1000 nM
C=CC(=O)Nc1ccc(C(O)Cn2c(C#N)cc3c(C)c(CN4CCC(Nc5ncnc6sc(CC(F)(F)F)cc56)CC4)ccc32)cn1 (stereo not shown) [Compound 112]	< 30 nM
C=CC(=O)Nc1ccc(CCn2c(C#N)cc3c(C)c(CN4CCC(Nc5ncnc6sc(CC(F)(F)F)cc56)CC4)ccc32)cc1P(=O)(C(C)C)C(C)C [Compound 206]	100 to 1000 nM
Cc1c(CN2CCC(Nc3ncnc4sc(CC(F)(F)F)cc34)CC2)ccc2c1cc(C#N)n2CCN1CCC(NC(=O)/C=C/CN(C)C)CC1 [Compound 27]	< 30 nM
C=CC(=O)Nc1cccc(CCn2c(C#N)cc3c(C)c(CN4CCC(Nc5ncnc6sc(CC(F)(F)F)cc56)CC4)ccc32)c1 [Compound 190]	100 to 1000 nM
